Measured values as given in paper PMC8015787 (Biochemistry, 2021).

Target: T1, 1-deoxy-D-xylulose 5-phosphate synthase (DXPS) (Escherichia coli, UniProt P77488)
T1 sequence (P77488 2-620): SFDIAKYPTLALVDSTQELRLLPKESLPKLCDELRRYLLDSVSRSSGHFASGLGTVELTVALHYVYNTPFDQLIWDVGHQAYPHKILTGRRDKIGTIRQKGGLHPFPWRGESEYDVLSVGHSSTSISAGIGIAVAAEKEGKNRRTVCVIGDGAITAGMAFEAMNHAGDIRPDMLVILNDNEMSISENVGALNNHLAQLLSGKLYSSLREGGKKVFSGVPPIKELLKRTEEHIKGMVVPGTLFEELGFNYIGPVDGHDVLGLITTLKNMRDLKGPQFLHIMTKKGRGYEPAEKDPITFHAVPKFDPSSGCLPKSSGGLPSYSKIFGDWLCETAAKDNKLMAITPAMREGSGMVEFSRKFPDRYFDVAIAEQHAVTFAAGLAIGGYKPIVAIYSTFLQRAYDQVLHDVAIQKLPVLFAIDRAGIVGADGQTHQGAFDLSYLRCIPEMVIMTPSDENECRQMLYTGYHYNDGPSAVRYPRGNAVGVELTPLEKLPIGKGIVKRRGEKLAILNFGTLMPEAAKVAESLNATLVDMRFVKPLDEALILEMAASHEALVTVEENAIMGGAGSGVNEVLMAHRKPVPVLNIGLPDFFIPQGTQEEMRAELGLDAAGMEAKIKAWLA
Test: CD titration of the ThDP-bound pre-decarboxylation intermediate, anaerobic
Format: binding

CCC(=O)C(=O)O [compound 2, ketobutyrate]
Kd: 16 ± 9 µM
